Measurements as given in patent US20260234165A1, “MACROCYCLIC COMPOUNDS, PREPARATION METHOD THEREFOR, AND USE THEREOF” (GENFLEET THERAPEUTICS (SHANGHAI) INC., priority 2004, published 2026).

What follows are compounds tested on AsPC-1 cells (KRAS G12D mutation) (assay: 3D cell proliferation assay (CellTiter Glo-3D), AsPC-1). Settings: 3D cell proliferation (CellTiter Glo-3D), medium with 2% FBS, read-out: AsPC-1 AP IC50.
Type: cell-based, human
Procedure, shortened: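 Luminescent CellTiter-Glo 3D readout after 5-day compound exposure (3.16-fold series, 0.1% DMSO, 2% FBS medium) at 37°C on 800 cells/well plated the day before; IC50 from four-parameter curve of inhibition relative to DMSO and blank wells.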

IC50 [nM]	SMILES
0.18	CO[C@@H](C)c1ncc(C#CCN2CCCOCC2)cc1-c1c2c3cc(ccc3n1CC(F)(F)F)-c1csc(n1)C[C@H](NC(=O)[C@H]1[C@H](C)[C@@H]1C)C(=O)N1CCC[C@H](N1)C(=O)OCC(C)(C)C2 (atropisomer, axis not shown; (Ra)) [Compound Z700, N-((6^3S,4S,Z)-1^1-(2,2,2-trifluoroethyl)-(Ra)-1^2-(2-((S)-1-methoxyethyl)-(5-(3-(1,4-oxazepan-4-yl)prop-1-yn-1-yl))-pyridin-3-yl)-10,10-dimethyl-5,7-dioxo-6^1,6^2,6^3,6^4,6^5,6^6-hexahydro-1^1H-8-oxa-2(4,2)-thiazola-1(5,3)-indola-6(1,3)-pyridazinacycloundecaphane-4-yl)-2,3-dimethylcyclopropane-1-carboxamide]
0.3	CCn1c(-c2cc(C#CCN3C4CCC3COC4)cnc2[C@H](C)OC)c2c3cc(ccc31)-c1csc(n1)C[C@H](NC(=O)[C@H]1[C@H](C)[C@@H]1C)C(=O)N1CCC[C@H](N1)C(=O)OCC(C)(C)C2 (atropisomer, axis not shown; (Ra)) [Compound Z711, (1r,2R,3S)—N-((6^3S,4S,Z)—(Ra)-1^2-(5-(3-(3-oxa-8-azabicyclo[3.2.1]octan-8-yl)prop-1-yn-1-yl)-2-((S)-1-methoxyethyl)pyridin-3-yl)-1^1-ethyl-10,10-dimethyl-5,7-dioxo-6^1,6^2,6^3,6^4,6^5,6^6-hexahydro-1^1H-8-oxa-2(4,2)-thiazola-1(5,3)-indola-6(1,3)-pyridazinacycloundecaphane-4-yl)-2,3-dimethylcyclopropane-1-carboxamide]
0.78	CCn1c(-c2cc(C#CCN(C)CCOC)cnc2[C@H](C)OC)c2c3cc(ccc31)-c1csc(n1)C[C@H](NC(=O)[C@H]1[C@H](C)[C@@H]1C)C(=O)N1CCC[C@H](N1)C(=O)OCC(C)(C)C2 (atropisomer, axis not shown; (Ra)) [Compound Z788]
0.18	CCn1c(-c2cc(C#CCN3CCOC[C@H]3C)cnc2[C@H](C)OC)c2c3cc(ccc31)-c1csc(n1)C[C@H](NC(=O)[C@H]1[C@H](C)[C@@H]1C)C(=O)N1CCCC(N1)C(=O)OCC(C)(C)C2 (atropisomer, axis not shown; (Ra)) [Compound Z813]
1.41	CCn1c(-c2cc(C#CCN3CCCOCC3)cnc2C(C)C)c2c3cc(ccc31)-c1csc(n1)C[C@H](NC(=O)[C@H]1[C@H](C)[C@@H]1C)C(=O)N1CCC[C@H](N1)C(=O)OCC(C)(C)C2 (atropisomer, axis not shown; (Sa)) [Compound Z811-2, (1r,2R,3S)—N-((6^3S,4S,Z)—(Sa)-1-(5-(3-(1,4-oxazepan-4-yl)prop-1-yn-1-yl)-2-isopropylpyridin-3-yl)-1^1-ethyl-10,10-dimethyl-5,7-dioxo-6^1,6^2,6^3,6^4,6^5,6^6-hexahydro-1^1H-8-oxa-2(4,2)-thiazola-1(5,3)-indola-6(1,3)-pyridazinacycloundecaphane-4-yl)-2,3-dimethylcyclopropane-1-carboxamide]

Same assay, conditions: Homo sapiens, ASPC1, 3D cell proliferation (CellTiter Glo-3D), medium with 2% FBS, read-out: AsPC-1 AP IC50

IC50 [nM]	SMILES
5	CCn1c(-c2cc(N3CCN4CC5(CC5)OC[C@@H]4C3)cnc2[C@H](C)OC)c2c3cc(ccc31)-c1csc(n1)C[C@H](NC(=O)[C@H]1[C@H](C)[C@@H]1C)C(=O)N1CCC[C@H](N1)C(=O)OCC1(CC1)C2 (atropisomer, axis not shown; (Ra)) [Compound Z13]
0.73	CCn1c(-c2cc(C#C[C@@H]3COCCN3C)cnc2[C@H](C)OC)c2c3cc(ccc31)-c1csc(n1)C[C@H](NC(=O)[C@H]1[C@H](C)[C@@H]1C)C(=O)N1CCC[C@H](N1)C(=O)OCC(C)(C)C2 (atropisomer, axis not shown; (Ra)) [Compound Z672, (1r,2R,3S)—N-((6^3S,4S,Z)-1^1-ethyl-(Ra)-1^2-(2-((S)-1-methoxyethyl)-5-(((R)-4-methylmorpholin-3-yl)ethynyl)pyridin-3-yl)-10,10-dimethyl-5,7-dioxo-6^1,6^2,6^3,6^4,6^5,6^6hexahydro-1^1H-8-oxa-2(4,2)-thiazola-1(5,3)-indola-6(1,3)-pyridazinacycloundecaphane-4-yl)-2,3-dimethylcyclopropane-1-carboxamide]
2.39	CCn1c(-c2cc(C#CCN3CCC(C(F)(F)F)CC3)cnc2[C@H](C)OC)c2c3cc(ccc31)-c1csc(n1)C[C@H](NC(=O)[C@H]1[C@H](C)[C@@H]1C)C(=O)N1CCC[C@H](N1)C(=O)OCC(C)(C)C2 (atropisomer, axis not shown; (Ra)) [Compound Z778]
0.19	CCn1c(-c2cc(C#CCN3CCN(C)C(=O)C3)cnc2[C@H](C)OC)c2c3cc(ccc31)-c1csc(n1)C[C@H](NC(=O)[C@H]1[C@H](C)[C@@H]1C)C(=O)N1CCC[C@H](N1)C(=O)OCC(C)(C)C2 (atropisomer, axis not shown; (Ra)) [Compound Z793]
0.34	CCn1c(-c2cc(C#CCN3CCCN(C)CC3)cnc2[C@H](C)OC)c2c3cc(ccc31)-c1csc(n1)C[C@H](NC(=O)[C@H]1[C@H](C)[C@@H]1C)C(=O)N1CCC[C@H](N1)C(=O)OCC(C)(C)C2 (atropisomer, axis not shown; (Ra)) [Compound Z802, (1r,2R,3S)—N-((6^3S,4S,Z)-1^2-(5-(3-(4-methyl-1,4-diaza-1-yl)prop-1-yn-1-yl)-(Ra)-2-((S)-1-methoxyethyl)pyridin-3-yl)-1^1-ethyl-10,10-dimethyl-5,7-dioxo-6^1,6^2,6^3,6^4,6^5,6^6-hexahydro-1^1H-8-oxa-2(4,2)-thiazola-1(5,3)-indola-6(1,3)-pyridazinacycloundecaphane-4-yl)-2,3-dimethylcyclopropane-1-carboxamide]
0.03	CCn1c(-c2cc(C#CCN3CCS(=O)(=O)CC3)cnc2[C@H](C)OC)c2c3cc(ccc31)-c1csc(n1)C[C@H](NC(=O)[C@H]1[C@H](C)[C@@H]1C)C(=O)N1CCC[C@H](N1)C(=O)OCC(C)(C)C2 (atropisomer, axis not shown; (Ra)) [Compound Z838, (1r,2R,3S)—N-((6^3S,4S,Z)—(Ra)-1^2-(5-(3-(1,1-dioxidothiomorpholino)prop-1-yn-1-yl)-2-((S)-1-methoxyethyl)pyridin-3-yl)-1^1-ethyl-10,10-dimethyl-5,7-dioxo-6^1,6^2,6^3,6^4,6^5,6^6-hexahydro-1^1H-8-oxa-2(4,2)-thiazola-1(5,3)-indola-6(1,3)-pyridazinacycloundecaphane-4-yl)-2,3-dimethylcyclopropane-1-carboxamide]
2.27	CCn1c(-c2cc(C#CCN3CCS(=O)(=O)CC3)cnc2[C@H](C)OC)c2c3cc(ccc31)-c1csc(n1)C[C@H](Nc1nnc3cc(C)ccn13)C(=O)N1CCC[C@H](N1)C(=O)OCC(C)(C)C2 (atropisomer, axis not shown; (Ra)) [Compound Z911, (6^3S,4S,Z)—(Ra)-1^2-(5-(3-(1,1-dioxidothiomorpholino)prop-1-yn-1-yl)-2-((S)-1-methoxyethyl)pyridin-3-yl)-1^1-ethyl-10,10-dimethyl-4-((7-methyl-[1,2,4]triazolo[4,3-a]pyridin-3-yl)amino)-6^1,6^2,6^3,6^4,6^5,6^6-hexahydro-1^1H-8-oxa-2(4,2)-thiazola-1(5,3)-indola-6(1.3)-pyridazinacycloundecaphane-5,7-dione]
2.82	CCn1c(-c2cc(C#CCN3CCCOCC3)cnc2[C@H](C)OC)c2c3cc(ccc31)-c1csc(n1)C[C@H](NC(=O)CC1CC1)C(=O)N1CCC[C@H](N1)C(=O)OCC(C)(C)C2 (atropisomer, axis not shown; (Ra)) [Compound Z915]
13.5	CCn1c(-c2cc(N3CCN(CCS(C)(=O)=O)CC3)cnc2[C@H](C)OC)c2c3cc(ccc31)-c1csc(n1)C[C@H](NC(=O)[C@H]1[C@H](C)[C@@H]1C)C(=O)N1CCC[C@H](N1)C(=O)OCC1(CC1)C2 (single isomer, unassigned) [Compound Z367]
14.1	CCO[C@@H](C)c1ncc(N2CCN(CCS(C)(=O)=O)CC2)cc1-c1c2c3cc(ccc3n1CC)-c1csc(n1)C[C@H](NC(=O)[C@H]1[C@H](C)[C@@H]1C)C(=O)N1CCC[C@H](N1)C(=O)OCC1(CC1)C2 (single isomer, unassigned) [Compound Z378-1]
0.4	CCn1c(-c2cc(C#CCN3CCCOCC3)cnc2[C@H](C)OC)c2c3cc(ccc31)-c1csc(n1)C[C@H](NC(=O)[C@H]1[C@H](C)[C@@H]1C)C(=O)N1CCC[C@H](N1)C(=O)OCC(C)(C)C2 (single isomer, unassigned) [Compound Z504]
1.18	CCn1c(-c2cc(C#CCN3CCC3)cnc2[C@H](C)OC)c2c3cc(ccc31)-c1csc(n1)C[C@H](NC(=O)[C@H]1[C@H](C)[C@@H]1C)C(=O)N1CCC[C@H](N1)C(=O)OCC(C)(C)C2 (single isomer, unassigned) [Compound Z554]
0.74	CCn1c(-c2cc(C#CCN3CCCOCC3)cnc2[C@H](C)OC)c2c3cc(ccc31)-c1csc(n1)C[C@H](NC(=O)[C@H]1C[C@@H]1C)C(=O)N1CCC[C@H](N1)C(=O)OCC(C)(C)C2 (single isomer, unassigned) [Compound Z604]
1.49	CCn1c(-c2cc(C#CCN3CCCOCC3)cnc2[C@H](C)OC)c2c3cc(ccc31)-c1csc(n1)C[C@H](NC(=O)CC(C)C)C(=O)N1CCC[C@H](N1)C(=O)OCC(C)(C)C2 (single isomer, unassigned) [Compound Z803]
